Calls of active or inactive are those of the source.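 Rule for the calls: active = EC50 no more than a set limit of log units above the highest dose; inactive = the rest.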
Target: S. pyogenes SKKanGAS, kanamycin survival, BacTiterGlo, 6 h
Assay: SKKanGAS survival reduction under kanamycin, dose response, streptokinase promoter inhibitor project, SKKanGAS strain, luminescence, dose confirmation (AID 1902);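 note: lower survival reflects blocked streptokinase promoter driving kanamycin resistance gene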

| Compound | EC50 |
| --- | --- |
| CC(=O)Oc1ccccc1C1=NN(C(=O)/C=C/c2ccccc2)C(c2ccccc2)C1 (configuration not stated) | 5.15 µM |
| Cc1ccccc1C(=O)Nc1nc(=S)ss1 | 2.46 µM |
| CS(=O)(=O)c1ccc([C@@H](O)[C@@H](CO)NC(=O)C(Cl)Cl)cc1 | 0.74 µM |
| CCCCCCCOC(=O)C[N+](C)(C)CCOC1CC2CCC1(C)C2(C)C (configuration not stated) | 4.52 µM |
| COc1cc(/C=N/Nc2nc(Nc3ccc(C)cc3)nc(-n3nc(C)cc3C)n2)cc(OC)c1OC | 0.171 µM |
| CCCn1c(NC(=O)c2cccc(C)c2C)nc2ccccc21 | 7.37 µM |
| COc1ccc(/C=C2/S/C(=N/N=C3\CC4CCC3(C)C4(C)C)NC2=O)cc1 (configuration not stated) | 10.7 µM |
| COc1ccc(C(=O)NC(=S)NNC(=O)COc2ccccc2)cc1 | 0.666 µM |
| CC(C)=CCc1c(O)cc2oc3c(CC=C(C)C)c(O)c(O)c(CC=C(C)C)c3c(=O)c2c1O | 0.828 µM |
| c1ccc(CSC2=NNC(c3ccccn3)S2)cc1 (configuration not stated) | 1.13 µM |
| O=C(Nc1nc(-c2ccccn2)cs1)C1CC1 | 1.33 µM |
| O=C(O)c1ccc2c3c(ncnc13)-c1ccccc1C2=O | 5.26 µM |
| COc1ccc(/C=C/C(=O)NC(=S)NNC(=O)c2cc(OC)c(OC)c(OC)c2)cc1 | 1.08 µM |
| Cc1ccc(C)c(-c2nnc(NC(=O)CCS(=O)(=O)c3ccccc3)o2)c1 | 8.64 µM |
| Cc1c(C)n(Cc2ccc(F)cc2)c2ccc(C(=O)N3CCN(c4ccccn4)CC3)cc12 | 6.11 µM |
| O=C(c1cc(-c2ccc(Br)cc2)nc2ccccc12)N1CCN(c2ccccc2O)CC1 | 6.44 µM |
| CCN1/C(=C/c2ccc3ccccc3[n+]2CC)C=Cc2ccccc21 | 6.08 µM |
| CCCN(CCC)c1nc(-c2ccccn2)nc2ccccc12 | 0.074 µM |
| CC(=O)Nc1nc(NC(=O)/C=C/c2ccccc2)n(-c2ccccc2)n1 | 1.74 µM |
| COc1ccc(/C=C2/C(=O)N(c3nc4ccccc4s3)N=C2CSc2ccc(Cl)cc2)cc1 | 0.518 µM |
| Oc1cccc2ccc(/C=C/c3c(F)cccc3Cl)nc12 | 0.43 µM |
| C/C(=N/Nc1cc(-c2ccccc2)nc(-c2ccccc2)n1)c1ccc(O)cc1 | 2.08 µM |

| Compound | EC50 |
| --- | --- |
| O=[N+]([O-])c1cc(Br)c(O)c(/C=N/Nc2nc3ccccc3s2)c1 | 1.23 µM |
| COc1ccc(-c2cc3nc[nH]c(=O)c3s2)cc1 | 8.36 µM |
| CCN1C(=O)C(CC(=O)Nc2ccc(Br)cc2)N(CCCc2ccccc2)C1=S (configuration not stated) | 2.9 µM |
| CN1CCN(C2=Cc3cc(Cl)ccc3Sc3cc(F)ccc32)CC1 | 5.16 µM |
| CCOC(=O)c1cnc(-n2nc(C)cc2C)nc1Nc1ccc(OC)cc1 | 0.185 µM |
| Cc1c(C(=O)N2CCC(Cc3ccccc3)CC2)sc2ncnc(N3CCC(C)CC3)c12 | 6.31 µM |
| COc1cnc(-c2ccccn2)nc1Oc1ccc(C(C)(C)C)cc1 | 7.68 µM |
| Clc1ccc(-[n+]2c(-c3cccc(Br)c3)[nH]c3nc4ccccc4nc32)cc1 | 1.67 µM |
| COc1cccc(C(=O)Nc2nnc(-c3cccs3)o2)c1 | 3.34 µM |
| CN(CC1CCCO1)S(=O)(=O)c1ccc(C(=O)Nc2nnc(-c3ccccc3)o2)cc1 (configuration not stated) | 2.62 µM |
| Cc1ccc(C)n1-c1sc2c(c1C#N)CCC(C)C2 (configuration not stated) | 2.35 µM |
| COc1cnc(-c2ccccn2)nc1Oc1ccccc1 | 2.03 µM |
| O=C1NC(=Nc2ccc(Cl)cc2)SC1Cc1cccc(Cl)c1Cl (configuration not stated) | 6.95 µM |
| CCCCCCc1cc2cc(-c3nnc(-c4ccccc4)o3)c(=O)oc2cc1O | 3.05 µM |
| Oc1cccc(-c2nc3ccc4ccccc4c3c3c2CCC3)c1 | 8.4 µM |
| Cc1cc(NC(=O)c2sccc2C)n(-c2nc3ccccc3[nH]2)n1 | 2.81 µM |
| Cc1nnc(SCC2=C(C(=O)O)N3C(=O)C(NC(=O)Cn4nc(C)c(Cl)c4C)C3SC2)s1 (configuration not stated) | < 0.06 µM |
| Cc1nn(CC(=O)NC2C(=O)N3C(C(=O)O)=C(CSc4nnnn4C)CSC23)cc1Br (configuration not stated) | < 0.06 µM |
| CNC(CC(C)C)C(=O)NC1C(=O)NC(CC(N)=O)C(=O)NC2C(=O)NC3C(=O)NC(C(=O)NC(C(=O)O)c4cc(O)cc(O)c4-c4cc3ccc4O)C(O)c3ccc(c(Cl)c3)Oc3cc2cc(c3OC2OC(CO)C(O)C(O)C2OC2CC(C)(N)C(O)C(C)O2)Oc2ccc(cc2Cl)C1O (configuration not stated) | 0.169 µM |
| CCOC(=O)c1c(NC(=O)c2cccs2)sc(CC)c1-c1cccs1 | 13.1 µM |
| Cc1c(CCC(=O)O)c(=O)oc2cc3occ(-c4ccc(Cl)cc4)c3cc12 | 3.46 µM |
| COc1cc2oc3ccc(C#Cc4ccc(N)cc4)cc3c(=O)c2cc1OC | 0.799 µM |

| Compound | EC50 |
| --- | --- |
| Oc1ccccc1/C=N/NC(=S)NC1CC2C=CC1C2 (configuration not stated) | 5.69 µM |
| CCCCCCCC(=O)NNC(=O)c1c(O)c2ccccc2n(CCC)c1=O | 1.1 µM |
| CC(Oc1ccc2ccccc2c1)C(=O)NNC(=S)NC(=O)c1ccco1 (configuration not stated) | 0.149 µM |
| Nc1c(-c2ccccc2)c(CSc2nc3ccccc3[nH]2)nn1-c1cccc(Cl)c1 | 1.51 µM |
| COc1cccc(-c2coc3c(C)c4oc(=O)c(CCC(=O)O)c(C)c4cc23)c1 | 3.73 µM |
| COc1ccc(-c2cc3ncnc(Cl)c3s2)cc1 | 7.15 µM |
| C/C(=N\NC(=O)c1nnn(-c2nonc2N)c1CN(C)c1ccccc1)c1ccccc1O | 2.75 µM |
| N#Cc1c(-c2ccccc2)nc(SCc2cccc(C(F)(F)F)c2)[nH]c1=O | 1.97 µM |
| NNc1nc(-c2ccccc2)c2cc(Br)ccc2n1 | 9.12 µM |
| COc1cccc(NC(=S)NN=C2CCCCCC2)c1 | 1.77 µM |
| COc1ccc2nc(N3C(=O)CNC3=S)sc2c1 | 2.89 µM |
| CCc1ccc(/C=C2\SC(=S)N(CCCC(=O)Nc3ccc(C(=O)O)cc3)C2=O)cc1 | 7.83 µM |
| CCOC(=O)/C(=N\Nc1ccc(OC)cc1)c1csc(Nc2ccccc2)n1 | 2.45 µM |
| Cc1ccccc1Nc1nc(N)nc(CN(C)Cc2ccccc2Cl)n1 | 1.76 µM |
| O=S(=O)(Nc1nc2ccccc2nc1Cl)c1ccc2ccccc2c1 | > 5 µM (inactive) |
| C=C[C@]1(C)C[C@@H](OC(=O)CSCCN(CC)CC)[C@]2(C)C(C)CC[C@]3(CCC(=O)[C@H]32)[C@@H](C)[C@@H]1O (some centres not stated) | < 0.06 µM |
| Cc1ccnc(NC(=S)N2CCN(c3cccc(C(F)(F)F)c3)CC2)c1 | 1.65 µM |
| COc1cc2ccccc2cc1C(=O)NC(=S)Nc1ccc(C(=O)O)cc1 | 4.44 µM |
| COc1ccc(-c2ncn(CCC#N)c2[N+](=O)[O-])cc1 | 2.72 µM |
| Fc1ccc(-n2cc(-c3ccccc3)c3c(=S)nc[nH]c32)cc1 | 8.7 µM |
| Cc1nc2ccccc2c(=O)n1/N=C/c1ccc2ccccc2c1O | > 15 µM (inactive) |
| C[C@@H](C[C@@H](O)[C@H](O)C(C)(C)O)[C@@H]1CC[C@]2(C)C3=CC[C@H]4C(C)(C)C(=O)CC[C@]4(C)[C@H]3CC[C@@]12C | 2.46 µM |

| Compound | EC50 |
| --- | --- |
| Cc1nnc(SCC2=C(C(=O)O)N3C(=O)C(NC(=O)Cn4nc(C(F)F)c(Cl)c4C)C3SC2)s1 (configuration not stated) | < 0.06 µM |
| O=S(=O)(NCc1nnc2c(C(F)(F)F)cc(Cl)cn12)c1ccccc1 | > 15 µM (inactive) |
| O=C(OCc1ccc(-c2ccccc2)cc1)c1cccc(O)c1 | 6.29 µM |
| CCC(C(=O)NCCCN1CCCC1=O)n1c2ccccc2c2nc(=O)cc(C)n21 (configuration not stated) | > 15 µM (inactive) |
| Cn1c(=O)[nH]c(=O)c2c1nc(N1CCC(Cc3ccccc3)CC1)n2Cc1ccccc1 | 3.91 µM |
| CCCCCCCCCCC(=O)NNC(=O)c1c(O)c2ccccc2n(CC)c1=O | 0.185 µM |
| Cc1ccccc1OCC(=O)Nc1ccccc1N1CCCCC1 | 8.71 µM |
| CC(C)(C)NS(=O)(=O)c1ccc(NS(=O)(=O)Cc2ccccc2)cc1 | > 15 µM (inactive) |
| CN(C)c1ccc(O)c2c1CC1CC3[C@@H](N(C)C)C(=O)C(C(N)=O)=C(O)[C@]3(O)C(=O)C1=C2O (some centres not stated) | 0.095 µM |
| FC(F)(F)c1cccc(Nc2nc(N3CCCC3)nc(N3CCCC3)n2)c1 | 2.23 µM |
| COc1cc(/C=C/C(=O)c2ccc([N+](=O)[O-])o2)ccc1O | 2.98 µM |
| Cc1ccc(C)c(-c2cc(C(=O)Nc3sc(C)c(C)c3C(N)=O)c3ccccc3n2)c1 | 3.55 µM |
| COc1ccc(Sc2ccc(NC(=O)c3ccccc3Cl)cc2C#N)cc1 | 2.51 µM |
| Cc1sc2ncnc(N3CCC(C(=O)Nc4ccc(Cl)cc4Cl)CC3)c2c1C | 11.2 µM |
| CCN1CCN(Cc2ccc(NC(=O)c3cc(NC(=O)c4cc(-c5ccc(OC)cc5)n[nH]4)cc(OC)c3)cc2C(F)(F)F)CC1 | 4.26 µM |
| CCOC(=O)c1sc2ncnc(NCC(c3cccs3)N(C)C)c2c1C (configuration not stated) | 7.95 µM |
| Cn1c(O)c(N=NC(=S)Nc2ccccc2F)c2cc(S(=O)(=O)N3CCOCC3)ccc21 | 5.09 µM |
| CC1=NNC(=O)/C1=C\c1cn(-c2ccccc2)nc1-c1ccc(Cl)cc1 | 5.67 µM |
| CCC(=O)Oc1ccc(-c2nc(-c3cccnc3)no2)cc1 | 4.3 µM |
| CC(C)CC(=O)NC(=S)NNC(=O)c1ccc(NC(=O)C2CCCCC2)cc1 | 0.546 µM |
| Cc1cc(C)cc(C(=O)N2CCC(CCC(=O)NC3CC3)CC2)c1 | > 15 µM (inactive) |
| C/C(Cl)=C\Cn1c(O)c(N=NC(N)=S)c2cc(Br)ccc21 | 1.36 µM |

| Compound | EC50 |
| --- | --- |
| Oc1c(Br)cc(Br)cc1/C=N/Nc1ccc(Cl)nn1 | 0.481 µM |
| O=C1N/C(=N\c2ccccn2)SC1Cc1ccc(Cl)cc1 (configuration not stated) | > 15 µM (inactive) |
| COc1ccc(NC(=S)N=Nc2c(O)[nH]c3ccccc23)cc1 | 1.09 µM |
| Cc1c(C(=O)Nc2nonc2-c2ccc(F)cc2)oc2ccc(F)cc12 | 4.06 µM |
| C/C(=N\NC(=O)c1cc2ccccc2cc1O)c1cccs1 | 12.5 µM |
| [O-][n+]1c2ccccc2[n+]([O-])c2cc(O)ccc21 | 5.86 µM |
| N=C(N)c1ccc(OCCCCCOc2ccc(C(=N)N)cc2)cc1 | < 0.06 µM |
| COc1ccccc1OCC(=O)NNC(=S)NC(=O)c1ccco1 | 2.39 µM |
| CCCOc1ccc(/C=C/c2c([N+](=O)[O-])c(=O)n(C)c(=O)n2C)cc1 | 7.11 µM |
| Cc1cc(SCC(=O)N/N=C/c2ccc(O)c(O)c2O)c(C)cc1Br | 3.11 µM |
| Oc1c(C=Nc2cccc3cccnc23)sc2ccccc12 | 3.94 µM |
| Clc1ccc(-c2n[nH]c3c2CCC3)cc1Cl | 12.6 µM |
| COc1ccccc1NC(=O)Nc1nc(CC(=O)Nc2cc(F)ccc2F)cs1 | 8.85 µM |
| Cc1cccc(/C=C2/S/C(=N/N=C3\CC4CCC3(C)C4(C)C)NC2=O)c1 (configuration not stated) | 1.19 µM |
| C[C@H]1COC2=C1C(=O)C(=O)c1c2ccc2c1CCCC2(C)C | 3.95 µM |
| COc1ccc(-c2c(C#N)c(N)nc3sc(C(=O)c4ccccc4)c(N)c23)cc1 | 5.9 µM |
| Cc1cccc(NCC(=O)N/N=C\c2cccc(Oc3ccccc3)c2)c1 | 11.9 µM |
| NC1CCN(c2nc3c(cc2F)c(=O)c(C(=O)O)cn3-c2ccc(F)cc2F)C1 (configuration not stated) | 0.296 µM |
| Cc1ccc(C)c(-c2nnc(NC(=O)COc3ccccc3)o2)c1 | 1.7 µM |
